Data as given in patent publication US11655232B2 (Celgene Corporation, priority 2003, dated 2023).
Values after ≈ are worked out from the molar mass of the structure shown. Where two headings read alike, the source gives them in different places.

Columns and labels:
[1] = Moisture sorption/desorption; assay type: physicochemical
Protocol: Moisture sorption/desorption data were collected on a VTI SGA-100 moisture balance system. For sorption isotherms, a sorption range of 5 to 95% relative humidity (RH) and a desorption range of 95 to 5% RH in 10% RH increments was used for analysis. The sample was not dried prior to analysis. Equilibrium criteria used for analysis were less than 0.0100 weight percent change in 5 minutes with a maximum equilibration time of 3 hours if the weight criterion was not met. Data were not corrected for the initial moisture content of the samples.

[2] = physchem; details: 25 °C, pH 1.8, aqueous with cosolvent or surfactant or cyclodextrin, thermodynamic from solid
Protocol: (§1) A solid sample of 400-450 mg was stirred in 50 mL of dissolution medium (HCl buffer, pH 1.8, with 1% sodium lauryl sulfate) using a mechanical stir rod. Aliquots were filtered using 0.2-μm nylon syringe filters and immediately diluted 1 mL→50 mL, then 5 mL→25 mL with dissolution medium in Class A glassware, a final dilution factor of 250.
(§2) Dissolution and solubility samples solutions were analyzed by a Beckman DU 640 single-beam spectrophotometer. A 1.000-cm quartz cuvette and an analysis wavelength of 228.40 nm were utilized. The detector was zeroed with a cuvette filled with dissolution medium.
(§3) XRPD analyses were carried out on a Shimadzu XRD-6000 X-ray powder diffractometer using Cu Kα radiation. The instrument is equipped with a fine focus X-ray tube. The tube power and amperage were set at 40 kV and 40 mA, respectively. The divergence and scattering slits were set at 1° and the receiving slit was set at 0.15 mm. Diffracted radiation was detected by a NaI scintillation detector. A theta-two theta continuous scan at 3°/min (0.4 sec/0.02° step) from 2.5 to 40°2θ was used. A silicon standard was analyzed each day to check the instrument alignment. Samples were packed in an aluminum holder with silicon insert.

[3] = Intrinsic dissolution (Woods apparatus); assay type: physicochemical
Protocol: Dissolution experiments were carried out in a VanKel VK6010-8 dissolution apparatus equipped with a VK650A heater/circulator. An intrinsic dissolution apparatus (Woods apparatus) was used. Samples were compressed at 1.5 metric tons (1000 psi) for 1 min using the Woods apparatus in a hydraulic press, giving a sample surface of 0.50 cm^2. […] The medium was degassed by vacuum filtration through a 0.22-μm nylon filter disk and maintained at 37° C. The apparatus was rotated at 50 rpm for each experiment. Aliquots were filtered immediately using 0.2-μm nylon syringe filters. In some cases, the undissolved solids were recovered and analyzed by X-ray powder diffraction (XRPD).
Diffracted radiation was detected by a NaI scintillation detector.

[4] = pH 1.8
Protocol: as §1, §2, §3

[5] = Temperature/relative humidity stress storage; assay type: physicochemical
[6] = Desolvation by heating; assay type: physicochemical; details: about 125° C. for about five minutes

Nc1cccc2c1CN(C1CCC(=O)NC1=O)C2=O (stereo not shown) [Form E, 3-(4-amino-1-oxo-1,3 dihydro-isoindol-2-yl)-piperidine-2,6-dione]
weight lost from start to finish ([1]; at 5% relative humidity after drying from 95% back down to 5%): about 0.0528 % by weight | weight gain on moisture sorption ([1]; from 5 to 95% relative humidity): does not exhibit a significant weight change | Solubility [2]: 4700 µg/mL (≈ 18.1 mM) | Cumulative Amount Dissolved per Unit Area ([3]; Experiment #1, 5 min): 2.70 mg/cm2 | Cumulative Amount Dissolved per Unit Area ([3]; Experiment #1, 10 min): 4.13 mg/cm2 | Cumulative Amount Dissolved per Unit Area ([3]; Experiment #1, 20 min): 6.96 mg/cm2 | Cumulative Amount Dissolved per Unit Area ([3]; Experiment #1, 30 min): 9.60 mg/cm2 | Cumulative Amount Dissolved per Unit Area ([3]; Experiment #1, 45 min): 12.57 mg/cm2 | Cumulative Amount Dissolved per Unit Area ([3]; Experiment #1, 60 min): 15.16 mg/cm2 | Cumulative Amount Dissolved per Unit Area ([3]; Experiment #1, 90 min): 20.82 mg/cm2 | Cumulative Amount Dissolved per Unit Area ([3]; Experiment #2, 5 min): 3.06 mg/cm2 | Cumulative Amount Dissolved per Unit Area ([3]; Experiment #2, 10 min): 4.31 mg/cm2 | Cumulative Amount Dissolved per Unit Area ([3]; Experiment #2, 20 min): 11.40 mg/cm2 | Cumulative Amount Dissolved per Unit Area ([3]; Experiment #2, 30 min): 11.93 mg/cm2 | Cumulative Amount Dissolved per Unit Area ([3]; Experiment #2, 45 min): 14.72 mg/cm2 | Cumulative Amount Dissolved per Unit Area ([3]; Experiment #2, 60 min): 18.52 mg/cm2 | Cumulative Amount Dissolved per Unit Area ([3]; Experiment #2, 90 min): 26.24 mg/cm2 | Cumulative Amount Dissolved per Unit Area ([3]; Experiment #2, 120 min): 33.56 mg/cm2 | Cumulative Amount Dissolved per Unit Area ([3]; Experiment #2, 150 min): 40.82 mg/cm2 | dissolution rates (estimated) ([3]; HCl buffer pH 1.8, 1% sodium lauryl sulfate): 0.23 mg/cm²/min | Final Form of undissolved solids after intrinsic dissolution (XRPD) ([3]; HCl buffer pH 1.8, 1% sodium lauryl sulfate, 37° C.): did not change | Average Intrinsic Dissolution Rate ([3]; average of experiments #1 and #2): 0.23 mg per cm^2 per minute | Intrinsic Dissolution #1 (rate) ([3]; experiment #1, 900 mL HCl buffer pH 1.8, 1% sodium lauryl sulfate, 37° C., 50 rpm): 0.21 mg per cm^2 per minute | Intrinsic Dissolution #2 (rate) ([3]; experiment #2, HCl buffer pH 1.8, 1% sodium lauryl sulfate, 37° C., 50 rpm): 0.25 mg per cm^2 per minute | Solubility [4]: 4700 µg/mL (≈ 18.1 mM) | form after stress storage ([5]; about 85 days, room temperature/0% RH and 40° C./93% RH): typically does not convert to a different form | form after stress storage ([5]; seven days at room temperature/0% RH): can convert to a new form, Form H | form after heating (desolvation) [6]: can convert to Form B
